Measurements: patent US12551429B2, “Oral care complexes and compositions” (Colgate-Palmolive Company, priority 2021, dated 2026)

What was measured:
[1] = Knoop hardness repair (% HR) of acid-etched bovine enamel after treatment and remineralization; conditions: for % HR (Percentage Hardness Repair): bovine enamel, 40 microliters
Description: Bovine enamel blocks are obtained from sound bovine incisors without defects. The labial surface of the bovine teeth is cut to provide enamel specimens of about 3×3×2 mm in size. The enamel layer is about 1 mm thick and the dentin left in the specimen is about 1 mm thick.
(§1) Etched enamel samples are prepared by treatment with 1% aqueous citric acid (pH 3.6) for 10 minutes, followed by rinsing with deionized water.
Etched bovine enamel samples are treated with 50 microliters of polyelectrolyte solutions A-F, or with sodium fluoride solution or water, for ten minutes at room temperature. The samples are then rinsed with deionized water and then they are immersed in 50 mL of Remineralization Solution (0.2205 g/L CaCl2·2H2O, 0.1225 g/L KH2PO4, 9.6915 g/L KCl and 4.766 g/L HEPEs buffer, pH adjusted to 7 with NaOH) overnight at 37° C. The enamel samples are then rinsed with deionized water for 50 seconds and then air dried.
Knoop Hardness (KHN) is a measure of hardness of a material calculated by measuring the indentation produced by a diamond tip that is pressed onto the surface of a sample. Using a calibrated microscope, the area of the impression can be determined, and from the area of the indentation (D) in […], and the applied load (F) in kilograms force, the Knoop Hardness is calculated as: KHN=14.229(F/D^2). Knoop hardness has units of kgf/mm^2.
KHN is determined using the Knoop microhardness tester. […] A value for Percentage of Hardness Repair (% HR) is calculated according to the following formula: % HR=(KHNt−KHNe)/(KHN0−KHNe)×100
Bovine and human enamel blocks are prepared and treated with polyelectrolyte test solutions as described in Examples 1 and 2, respectively, except that 40 microliters of the polyelectrolyte solution are applied to the etched enamel surface, instead of 50 microliters. Koop Hardness (KHN) and Percentage Hardness Repair (% HR) are determined as described in Examples 1 and 2. […]

[2] = Knoop hardness repair (% HR) of acid-etched human enamel after treatment and remineralization
Description: KHN is determined using the Knoop microhardness tester. A baseline measurement is taken on a sound enamel sample without treatment (KHN0), on an acid-etched enamel sample (KHNe), and on an acid-etched enamel sample after treatment (KHNt). Each KHN measurement is the average of 5 indentations made on the same specimen at a force of 0.05 kg for 15 seconds. A value for Percentage of Hardness Repair (% HR) is calculated according to the following formula: % HR=(KHNt−KHNe)/(KHN0−KHNe)×100
Etched enamel samples are prepared by treatment with 1% aqueous citric acid (pH 3.6) for 10 minutes, followed by rinsing with deionized water. […]

[3] = Step height repair of etched bovine enamel blocks (sound/damaged/repaired method, Keyence microscope)
Description: (§2) The left half of the block (“sound”) is covered using an acid-resistant nail polish, which is then allowed to air dry. The right half of the block (“damaged” and “repaired”) is then treated with 1% citric acid (pH 3.6) for ten minutes to etch the surface. After the treatment, the surface of the block is rinsed with deionized water. The top right corner of the block (“damaged”) is then covered with the same acid-resistant nail polish and air dried. The test formulation is then applied to the bottom right corner of the block (“repaired”), for example, for a ten-minute treatment, followed by rinsing with deionized water. Following the treatment, the enamel blocks are immersed in a Remineralization Solution (0.2205 g/L CaCl2·2H2O, 0.1225 g/L KH2PO4, 9.6915 g/L KCl and 4.766 g/L HEPEs buffer, pH adjusted to 7 with NaOH) overnight at 37° C., and the process repeated for 2-4 days (the blocks immersed daily in fresh remineralization solution). Following this, the blocks are removed, rinsed with deionized water and air dried. The nail polish covers are then removed using acetone solvent, and the surface of the enamel blocks is visualized, for example, by light microscopy, confocal laser scanning microscopy, scanning probe microscopy, or scanning electron microscopy. […]
(§3) Enamel repair is also evaluated using the method described in Example 4. […]

[4] = Gloss recovery (% GR) of acid-etched enamel, Novo-Curve glossmeter; design: species or system bovine; conditions: Example 5
Description: Enamel repair is also evaluated using the method described in Example 4. A Keyence microscope is used to capture the surface morphology and to measure the step height of the treated samples. A Phenom ProX Desktop scanning electron microscope is used to observe the repaired enamel crystals. Bovine enable blocks are treated with either water, the sodium fluoride solution, or the 10 mg/mL ePL+0.06 mg/mL malic acid solution (Solution E above).
The effect of treatments on enamel appearance is also investigated by measuring the surface gloss and observing the surface under a microscope. The gloss values are measured using a Novo-Curve glossmeter. A glossmeter provides a quantifiable way of measuring gloss intensity, and the measurement relates to the amount of reflected light from a black glass standard with a defined refractive index. The ratio of reflected light for a test specimen, compared to the ratio for the gloss standard, is recorded as gloss units (GU). A gloss measurement of >70 GU is considered high gloss, while medium gloss is 10-70 GU, and low gloss is <10 GU.
A baseline measurement is taken on a sound enamel sample without treatment (G0), on an acid-etched enamel sample (Ge), and on an acid-etched enamel sample after treatment (Gt). The percentage of gloss recovery (% GR) is calculated according to the following formula: % GR=(Gt−Ge)/(G0−Ge)×100.

[5] = Light microscopy of enamel surface morphology (sound/damaged/repaired method); conditions: Example 5; bovine enamel blocks
Description: as §2, §3

[6] = Scanning electron microscopy of enamel surface; conditions: Example 5; bovine enamel blocks
Description: as §2, §3

[7] = Surface roughness change (% R) of etched human enamel, 3D laser scanning confocal microscope; conditions: Example 2, % R=(Rt−Re)/(Re)×100, four days of treatment, negative = smoother
From the text: Human molar teeth are obtained, and the root portion of the molar is removed. The crown of the molar is cut longitudinally into slices 2 mm thick using a water-cooled low-speed diamond saw. The human enamel samples are then mounted in acrylic resin. The embedded samples are grinded and polished with a sequential series of wet 400 to 4000 grit silicon carbide papers and nylon adhesive backed discs with 0.25 micron diamond or colloidal silica coating. The polished slices are rinsed thoroughly with distilled water three times, sonicated in a water bath for five minutes, then rinsed again and allowed to air dry.
as §1
Etched human enamel samples are treated with 50 microliters of polyelectrolyte solutions A-F, or with control solutions, for ten minutes at room temperature. […]
In addition, surface roughness and morphology are evaluated using a 3D laser scanning confocal microscope. […] Roughness is therefore measured in units of micrometers. Values for roughness of the acid etched enamel sample (Re) and for the acid-etched enamel sample after treatment (Rt) are determined. Percentage of roughness (% R) is calculated as follows: % R=(Rt−Re)/(Re)×100

SMILES | % HR (Percentage of Hardness Repair) ([1]; Example 1, bovine enamel etched with 1% citric acid, 50 microliters for ten minutes, Remineralization Solution overnight at 37° C.) | % HR (Percentage Hardness Repair) ([1]; Example 3, solutions pH 7.0) | % HR (Percentage Hardness Repair) ([1]; Example 5, solutions about pH 6.0, 1 day of treatment) | % HR (Percentage Hardness Repair) ([2]; Example 3, 40 microliters, solutions pH 7.0, 4 days of treatments) | restoration of enamel height in 3-D Keyence photomicrographs (FIG. 3) ([3]; Example 5) | % Repair (Step height) ([3]; Example 5, calculated from change in step height) | % GR (percentage of gloss recovery) ([4]; 2 days of remineralization) | surface gloss recovery, in words ([4]; after 2 days of remineralization) | surface morphology of the repaired side under the microscope (FIG. 2) [5] | repair of gaps or cracks in the enamel surface by scanning electron microscopy [6] | % HR (Percentage of Hardness Repair) ([2]; Example 2, 50 microliters for ten minutes, overnight remineralization, repeated daily for four days) | % R (Percentage of roughness) [7]
[F-].[Na+] [NaF, sodium fluoride] | 27.9% | 35.9% | 41.0% | 49.3% | do not restore the enamel to the original height | 65.3% | 12.7% | slightly better than water treatment | a clear interface between “damaged” and “repaired” sides is observed | some healing |  | 
O=C(O)CC(O)C(=O)O (stereo not drawn) [Malic acid, malic acid] |  |  |  |  |  |  |  |  |  |  | 19.8% | −1.6%
